In US20240199651A1, “ANTIBACTERIAL COMPOUNDS” (JANSSEN SCIENCES IRELAND UNLIMITED COMPANY, priority 2021, published 2024):
Where two headings read alike, the source gives them in different places.

How the values were obtained:
[1] = system: Mycobacterium tuberculosis strain EH4.0 expressing green-fluorescent protein (GFP); experiment: microbe, parasite or virus in culture; format: cell-based
[2] = Mitochondrial toxicity (Glu/Gal) assay; format: cell-based; details: for Δ IC50, glu/IC50, gal: ratio IC50 glu / IC50 gal; for Score: mitotoxicity score, Glu/Gal assay
Excerpt: The compounds of the invention/examples may have advantages associated with in vitro potency, kill kinetics (i.e. bactericidal effect) in vitro, PK properties, food effect, safety/toxicity (including liver toxicity, coagulation, 5-LO oxygenase), metabolic stability, Ames II negativity, MNT negativity, aqueous based solubility (and ability to formulate) and/or cardiovascular effect e.g. on animals (e.g. anesthetized guinea pig). Data that is generated/calculated may be obtained using standard methods/assays, for instance that are available in the literature or which may be performed by a supplier (e.g. Microsomal Stability Assay—Cyprotex, Mitochondrial toxicity (Glu/Gal) assay—Cyprotex, as well as literature CYP cocktail inhibition assays). GSH can be measured (reactive metabolites, glucuronidation) to observe if a dihydrodiol is observed by LCMS (fragmentation ions), which would correspond to a dihydroxylation on the core heterocycle.

[3] = Chemical stability testing (LCMS); format: physicochemical; details: 30 µM
Protocol: • Add 3 μl of a 10 mM DMSO stock solution to 1 ml of the following solvents in a 1.5 ml HPLC vial. • DMSO (reference solution) • H2O/Acetonitril 1/1 (assay solution) • 0.1N HCl/Acetonitril 1/1 (assay solution) • Mix well, […] LCMS • Compare the chromatograms of the two assay solutions with the reference solution and report the additional peaks as degradation peaks

[4] = galactose medium (Glu/Gal mitotoxicity assay), read-out: IC50, gal
[5] = glucose medium (Glu/Gal mitotoxicity assay), read-out: IC50, glu

Row | Compound | IC50 [2, 4] [µM] | IC50 [2, 5] [µM] | Δ IC50, glu/IC50, gal [2] | Score [2] | IC50 ([2]; read-out: IC50, gal) [µM] | IC50 ([2]; read-out: IC50, glu) [µM] | further results
1 | CCc1nc2ncc(C)cn2c1C(=O)NCc1ccc(-c2nn3c(c2C)CN(S(=O)(=O)C(F)(F)F)CC3)c(F)c1 [Compound 87] | 25.4 | 85.8 | 3.38 | – | – | – | AC50 [1]: 0.036 µM
2 | O=C(NCc1ccc(-c2nc3n(n2)CCN(S(=O)(=O)C(F)(F)F)C3)c(F)c1)c1c(C(F)(F)F)nc2ccccn12 [Compound 6] | – | – | 0.66 | [x]1 | 134 | 88.5 | chemical stability, % by LCMS ([3]; 48 h): 100%; chemical stability, % by LCMS ([3]; 48 h, pH 1.6): 100%
3 | O=C(NCc1ccc(-c2cc3n(n2)CCN(S(=O)(=O)C(F)(F)F)C3)cc1)c1c(C(F)(F)F)nc2ccccn12 [Compound 119] | – | – | >1.54 | [x]1 | 130 | > 200 | –
4 | CCc1nc2cc(OC)c(Cl)cn2c1C(=O)NCc1ccc(-c2nc3n(n2)CCN(S(=O)(=O)C(F)(F)F)C3)c(F)c1 [Compound 10] | – | – | – | – | > 200 | > 200 | chemical stability, % by LCMS ([3]; 72 h): 97.03%; chemical stability, % by LCMS ([3]; 72 h, pH 1.6): 100%
5 | CCc1nc2cc(OC)c(Cl)cn2c1C(=O)NCc1cnc(-c2nc3n(n2)CCN(S(=O)(=O)C(F)(F)F)C3)c(F)c1 [Compound 16] | > 200 | > 200 | – | – | – | – | –
6 | Cc1ccc2nc(C3CC3)c(C(=O)NCc3ccc(-c4nc5n(n4)CCN(S(=O)(=O)C(F)(F)F)C5)cc3)n2c1 [Compound 30] | – | – | 1.35 | [x]1 | 71.1 | 95.7 | –
7 | CCc1nc2ccc(C(C)C)cn2c1C(=O)NCc1ccc(-c2nc3n(n2)CCN(S(=O)(=O)C(F)(F)F)C3)cc1 [Compound 35] | – | – | >1.25 | [x]0 | 40.1 | > 50 | –
8 | CCc1nc2c(Cl)c(OC)ccn2c1C(=O)NCc1ccc(-c2nc3n(n2)CCN(S(=O)(=O)C(F)(F)F)C3)c(F)c1 [Compound 11] | – | – | >2.93 | – | 68.2 | > 200 | –
9 | O=C(NCc1ccc(-c2nc3n(n2)CCN(S(=O)(=O)C(F)(F)F)C3)c(F)c1)c1c(C(F)F)nc2ccc(Cl)cn12 [Compound 5] | – | – | 0.96 | [x]1 | 117 | 112 | –
10 | CCc1nc2ncc(C)cn2c1C(=O)NC(C)(C)c1ccc(-c2nc3n(n2)CCN(S(=O)(=O)C(F)(F)F)C3)cc1 [Compound 83] | – | – | 1.12 | [x]1 | 127 | 142 | –
11 | Cc1cnc2nc(C)c(C(=O)NCc3ccc(-c4nc5n(n4)CCN(S(=O)(=O)C(F)(F)F)C5)cc3)n2c1 [Compound 29] | > 200 | > 200 | – | – | – | – | –
12 | CCc1nc2ccc(F)cn2c1C(=O)NCc1ccc(-c2nc3n(n2)CCN(S(=O)(=O)C(F)(F)F)C3)cc1 [Compound 22] | – | – | 1.51 | [x]1 | 62.6 | 94.7 | –
13 | CCc1nc2ccc(C)cn2c1C(=O)NCc1ccc(-c2nc3n(n2)CCNC3)cc1 [Compound 52] | > 200 | > 200 | – | – | – | – | –
14 | CCc1nc2ncc(C)cn2c1C(=O)NCc1ccc(-c2nc3n(n2)CCN(C)C3)cc1 [Compound 50] | > 200 | > 200 | – | – | – | – | –
15 | O=C(NCc1ccc(-c2cn3c(n2)CN(S(=O)(=O)C(F)(F)F)CC3)cc1)c1c(C(F)F)nc2ccccn12 [Compound 116] | – | – | >9.96 | [x]3 | 20.1 | > 200 | –
16 | CCc1nc2ncc(C)cn2c1C(=O)NCc1ccc(N2CCC(c3nc4n(n3)CCN(S(=O)(=O)C(F)(F)F)C4)CC2)cc1 [Compound 60] | – | – | >3.56 | – | 56.2 | > 200 | –
17 | CCc1nc2ncc(C)cn2c1C(=O)NCc1cnc(-c2cc3n(n2)CCN(S(=O)(=O)C(F)(F)F)C3)nc1 [Compound 131] | > 100 | > 100 | – | – | – | – | –
18 | CCc1nc2nc(N)c(Cl)cn2c1C(=O)NCc1ccc(-c2nc3n(n2)CCN(S(=O)(=O)C(F)(F)F)C3)c(F)c1 [Compound 12] | – | – | – | – | – | – | chemical stability, % by LCMS ([3]; 72 h): 96.14%; chemical stability, % by LCMS ([3]; 72 h, pH 1.6): 97.06%
19 | O=C(NCc1ccc(-c2nc3n(n2)CCN(S(=O)(=O)C(F)(F)F)C3)cc1)c1c(C(F)(F)F)nc2ccccn12 [Compound 122] | > 100 | > 100 | – | – | – | – | –
20 | CCc1nc2ncc(C)cn2c1C(=O)NCc1nc(-c2nc3n(n2)CCN(S(=O)(=O)C(F)(F)F)C3)cs1 [Compound 75] | – | – | – | – | > 200 | > 200 | –
